# Legend:
# [1] = biological target: T1, Induced myeloid leukemia cell differentiation protein Mcl-1 (Homo sapiens, UniProt Q07820); assay: Inhibition of FITC-BAK binding to MCL1 (172 to 327 residues) (unknown origin) by fluorescence polarization assay
# [2] = Induction of apoptosis in human MOLP8 cells assessed as caspase 3/7 activation after 2 hrs by caspase-Glo 3/7 assay; format: functional, cell-based; conditions: MOLP-8, 2 h
# [3] = test system: MDA-MB-468; assay: Cytotoxicity against human MDA-MB-468 cells assessed as reduction in cell viability by MTT assay; format: functional, cell-based
# [4] = biological target: T2, Bcl-2-like protein 1 (Homo sapiens, UniProt Q07817); assay: Inhibition of biotin labelled Bid-BH3 binding to GST-tagged BCL-XL (unknown origin) preincubated for 15 mins followed by biotin labelled Bid-BH3 addition measured after 2 hrs by ELISA
# [5] = test system: RS4-11; assay: Cytotoxicity against human RS4:11 cells assessed as reduction in cell viability after 72 hrs; format: functional, cell-based; conditions: RS4-11, 72 h
# [6] = biological target: T2, Bcl-2-like protein 1; assay: Inhibition of biotin labelled Bid-BH3 binding to C-terminal GST-tagged human BCL-XL […] expressed in Escherichia coli BL21 (DE3) preincubated for 1 hr followed by followed by biotin labelled Bid-BH3 addition measured after 2 hrs by ELISA
# [7] = test system: HeLa; assay: Cytotoxicity against human HeLa cells assessed as reduction in cell viability after 72 hrs; format: functional, cell-based
# [8] = biological target: T1, Induced myeloid leukemia cell differentiation protein Mcl-1; assay: Inhibition of FITC-BAK binding to His6 tagged MBP fused recombinant human MCL1 (172 to 327 residues) expressed in Escherichia coli by fluorescence polarization competition assay
# [9] = test system: A-375; assay: Growth inhibition of human A375 cells after 48 hrs by CellTiter-Blue assay; format: functional; conditions: A-375, 48 h
# [10] = Antiproliferative activity against human NCI-H2110 cells after 48 hrs by CellTiter-Glo assay; format: functional, cell-based; conditions: NCI-H2110, 48 h
# [11] = test system: NCI-H23; assay: Antiproliferative activity against human NCI-H23 cells after 48 hrs by CellTiter-Glo assay; format: functional, cell-based; conditions: NCI-H23, 48 h
# [12] = biological target: T1, Induced myeloid leukemia cell differentiation protein Mcl-1; assay: Inhibition of N-terminal 26 residues truncated 5-FAM labelled Bid-BH3 binding to MCL1 (unknown origin) by fluorescence polarization assay
# [13] = test system: B-ALL; assay: Cytotoxicity against human B-ALL cells assessed as reduction in cell viability after 24 hrs by CellTiter-Glo luminescent assay; format: functional, cell-based
# [14] = Inhibition of recombinant FITC tagged Bid-BH3 binding to BCL-XL deltaC (unknown origin) expressed in Escherichia coli BL21 (DE3) by fluorescence polarization assay; set-up: species or system Homo sapiens
# [15] = biological target: T1, Induced myeloid leukemia cell differentiation protein Mcl-1; assay: Inhibition of His6 tagged MBP fused Mcl-1 (unknown origin) after 0.5 hrs by fluorescence polarization assay
# [16] = biological target: Apoptosis regulator Bcl-2 (Homo sapiens, UniProt P10415); assay: Displacement of FAM labelled Bid-derived peptide from Bcl-2 (unknown origin) incubated for 1 min by fluorescence polarization assay
# [17] = test system: NCI-H345; assay: Induction of apoptosis in human NCI-H345 cells after 48 hrs by Annexin V-FITC staining based flow cytometry; format: functional, cell-based; conditions: NCI-H345, 48 h
# [18] = Selectivity ratio of IC50 for human HL60 cells to IC50 for human NCI-H345 cells; format: functional
# [19] = species on record: Homo sapiens; assay: Selectivity ratio of Ki for Bcl-2 (unknown origin) to Ki for MCL1 (unknown origin)
# [20] = biological target: T1, Induced myeloid leukemia cell differentiation protein Mcl-1; assay: Displacement of FAM labelled Bid-derived peptide from MCL1 (unknown origin) incubated for 1 min by fluorescence polarization assay
# [21] = test system: HL-60; assay: Induction of apoptosis in human HL60 cells after 48 hrs by Annexin V-FITC staining based flow cytometry; format: functional, cell-based; conditions: HL-60, 48 h
# [22] = test system: RS4-11; assay: Cytotoxicity against human RS4:11 cells assessed as reduction in cell viability; format: functional, cell-based
# [23] = biological target: T1, Induced myeloid leukemia cell differentiation protein Mcl-1; assay: Inhibition of Mcl-1 (unknown origin) by TR-FRET assay
# [24] = biological target: T1, Induced myeloid leukemia cell differentiation protein Mcl-1; assay: Inhibition of FAM labelled Bid-BH3 binding to N-terminal GST-tagged human recombinant MCL1 expressed in Escherichia coli […] after 60 mins by TR-FRET assay
# [25] = biological target: T1, Induced myeloid leukemia cell differentiation protein Mcl-1; assay: Binding affinity to MCL1 (unknown origin) by surface plasma resonance method
# T1 sequence (Q07820 whole entry, the tested form may be a part): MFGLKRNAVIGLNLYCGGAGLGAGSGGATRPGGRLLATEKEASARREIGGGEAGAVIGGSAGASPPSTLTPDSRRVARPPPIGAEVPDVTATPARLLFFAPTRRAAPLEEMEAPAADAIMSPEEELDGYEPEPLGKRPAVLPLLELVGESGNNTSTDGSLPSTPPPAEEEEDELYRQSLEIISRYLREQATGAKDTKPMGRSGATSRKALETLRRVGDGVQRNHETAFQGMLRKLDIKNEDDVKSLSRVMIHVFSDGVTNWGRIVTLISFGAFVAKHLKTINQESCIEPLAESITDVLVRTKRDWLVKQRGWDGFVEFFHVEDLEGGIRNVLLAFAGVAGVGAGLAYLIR
# T2 sequence (Q07817 whole entry): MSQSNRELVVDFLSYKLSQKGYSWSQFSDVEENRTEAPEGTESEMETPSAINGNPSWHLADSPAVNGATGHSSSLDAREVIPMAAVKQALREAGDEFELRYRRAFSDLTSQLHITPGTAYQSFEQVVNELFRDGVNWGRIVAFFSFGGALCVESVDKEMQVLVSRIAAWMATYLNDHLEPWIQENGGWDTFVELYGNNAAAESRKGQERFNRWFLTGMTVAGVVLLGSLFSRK
# Chain of Apoptosis regulator Bcl-2 (P10415 whole entry): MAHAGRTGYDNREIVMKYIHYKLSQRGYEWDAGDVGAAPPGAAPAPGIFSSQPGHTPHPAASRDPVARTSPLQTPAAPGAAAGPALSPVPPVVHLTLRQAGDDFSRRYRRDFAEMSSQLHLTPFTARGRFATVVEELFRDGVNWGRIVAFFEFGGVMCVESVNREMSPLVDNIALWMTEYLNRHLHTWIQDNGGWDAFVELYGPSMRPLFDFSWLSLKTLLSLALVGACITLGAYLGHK
compound,measurement,setting,value
Cc1cc(Oc2ccc(C(=O)O)c(OCc3ccccc3)n2)cc(C)c1Cl,Ki,[1],2900 nM
Cc1c(-c2cccc3c(CCCOc4cccc5ccccc45)c(C(=O)O)[nH]c23)c(COc2ccccc2)nn1C,EC50,[2],> 11000 nM
O=C(O)CSc1ccc(C(=O)c2[nH]c(Cl)c(Cl)c2-n2c(C(=O)c3ccc(SCC(=O)O)cc3O)cc(Cl)c2Cl)c(O)c1,IC50,[3],29000 nM
same,IC50,[4],> 100000 nM
O=C(c1ccccc1O)c1[nH]c(Cl)c(Cl)c1-n1c(C(=O)c2ccccc2O)cc(Cl)c1Cl,IC50,[5],2000 nM
same,IC50,[6],> 80000 nM
same,IC50,[7],20000 nM
Cc1cc(Oc2ccc(S(=O)(=O)N3CC(C(=O)O)Cc4ccccc43)cc2)cc(C)c1Cl (stereo not drawn),Ki,[8],120 nM
same,GI50,[9],50000 nM
O=C(O)c1[nH]c2ccccc2c1CCCCC1CCCCC1,EC50,[10],5300 nM
same,EC50,[11],7200 nM
COc1cc(NC(=O)CCC(=O)N2CCN(Cc3cccc(-c4ccc(Cl)cc4)c3)CC2)cc(OC)c1OC,Ki,[12],320 nM
Cc1c(-c2cccc3c(CCCOc4cccc5ccccc45)c(C(=O)O)n(C)c23)c(COc2ccc(B(O)O)c(C=O)c2)nn1C,EC50,[2],75 nM
COc1cc(CC(=O)NCc2ccc(C(=O)N3CCN(Cc4ccccc4-c4ccccc4)CC3)cc2)cc(OC)c1OC,Ki,[12],180 nM
Cc1cs/c(=N\C2CCCCC2)n1/N=C/c1ccc(O)c(O)c1O,IC50,[13],4200 nM
same,IC50,[14],> 50000 nM
CC(=O)c1cccc(OCc2nn(C)c(C)c2-c2cccc3c(CCCOc4cccc5ccccc45)c(C(=O)O)[nH]c23)c1,EC50,[2],2700 nM
CC(=O)c1cc(OCc2nn(C)c(C)c2-c2cccc3c(CCCOc4cccc5ccccc45)c(C(=O)O)[nH]c23)ccc1B(O)O,EC50,[2],170 nM
Cc1c(-c2cccc3c(CCCOc4cccc5ccccc45)c(C(=O)O)[nH]c23)c(COc2ccc(B(O)O)c(C=O)c2)nn1C,EC50,[2],460 nM
Cc1cc(OCCCc2c3n(c4c(-c5c(C)nn(C)c5C)c(Cl)ccc24)CCCC(c2cc(C(=O)O)c4ccn(C)c4c2)C3=O)cc(C)c1Cl (stereo not drawn),Ki,[15],< 1 nM
CCc1nn(C)c(CC)c1-c1cccc2c(CCCOc3cccc4ccccc34)c(C(=O)O)n(CCN3CCOCC3)c12,EC50,[2],350 nM
O=C(O)c1cc2ccccc2n1S(=O)(=O)c1ccc(OCc2cccc(Cl)c2)cc1,Ki,[16],3600 nM
same,IC50,[17],2200 nM
same,Ratio IC50,[18],30
same,Ratio Ki,[19],7.5
same,Ki,[20],480 nM
same,IC50,[21],63300 nM
CC1(C)CCC(CN2CCN(c3ccc(C(=O)NS(=O)(=O)c4ccc(NCC5CCOCC5)c([N+](=O)[O-])c4)c(Oc4cnc5[nH]ccc5c4)c3)CC2)=C(c2ccc(Cl)cc2)C1 [VENETOCLAX],IC50,[22],1.5 to 5 nM
same,Ki,[23],> 444 nM
Cc1c(-c2cccc3c(CCCOc4cccc5ccccc45)c(C(=O)O)[nH]c23)c(COc2cccc(C=O)c2)nn1C,EC50,[2],> 11000 nM
Cc1c(-c2cccc3c(CCCOc4cccc5ccccc45)c(C(=O)O)[nH]c23)c(COc2ccc(B(O)O)cc2)nn1C,IC50,[24],162 nM
same,EC50,[2],> 11000 nM
N#CC1=C(NCCC(=O)O)c2ccc(Sc3ccc(Br)cc3)c3cccc(c23)C1=O,Kd,[25],150 nM

# — ChEMBL document CHEMBL4145520, “Small-molecule Mcl-1 inhibitors: Emerging anti-tumor agents” (Eur J Med Chem, 2018)
